Measured values: the NIST ThermoML archive (doi:10.1021/acs.jced.6b00552)
± gives the expanded uncertainty stated by the source.

Assays:
[1] = Crystal; DSC
[2] = Molar enthalpy of transition or fusion; details: Crystal; DSC

Triple point temperature [1] [K] | Molar enthalpy of transition or fusion [2] [kJ/mol] | SMILES
542.96 ± 1.2 | 56.4 ± 3.5 | O=C(CCc1ccc(O)cc1)c1c(O)cc(O)cc1O [3-(4-hydroxyphenyl)-1-(2,4,6-trihydroxyphenyl)propan-1-one]
432.22 ± 1.2 | 29.6 ± 1.9 | C[C@@H]1O[C@@H](O[C@H]2[C@H](Oc3cc(O)c(C(=O)CCc4ccc(O)cc4)c(O)c3)O[C@H](CO)[C@@H](O)[C@@H]2O)[C@H](O)[C@H](O)[C@H]1O [naringin dihydrochalcone]
